In patent US4337199A, “Antibiotic β-lactam compounds, production thereof, and their use as antimicrobial agent” (Sanraku-Ocean Co., Ltd., priority 1978, dated 1982):
Converted amounts (≈) assume the structure as drawn. Read-outs that look alike come from different tables or passages of the source.

Tests used:
[1] = tested on: Staphylococcus aureus Smith strain; assay: Infection treating test; type: in vivo, Staphylococcus aureus (in ddy male mice); details: sc, 2 h, mice infected intraperitoneally, 5×10^5 cells per mouse, subcutaneous, two hours after infection, read-out: CD50 (the source's name)
Protocol: The in vivo activities of the compounds of formula (I-d) were determined by using mice (five per group, ddy male mice, Shizuoka) which had been intraperitoneally infected with Staphylococcus aureus Smith strain in an amount of 5×10^5 cells per mouse. Two hours after the infection, an injection containing a sodium salt of each of the compounds of formula (I-d) was subcutaneously administered to the mice.

[2] = tested on: Staphylococcus aureus Smith; assay: minimum inhibitory concentration, agar dilution assay; type: cell-based; details: agar dilution, 35° C., 20 hours, read-out: minimum inhibitory concentration
Protocol: (§1) The antibiotic activities shown in Tables I-1 to I-8 above were determined in the following manner.
(§2) The minimum inhibitory concentrations of the compounds of formula (I-a-1) or (I-b-1) in Tables I-1 to I-7 and the known compounds in Table I-8 on the various microorganisms shown in the above tables were measured by an agar dilution assay method using a brain heart infusion agar medium "Difco" (a product of Difco Laboratories Inc.)
(§3) A sample of the test compound was dissolved in sterile distilled water and diluted to prepare a two-fold dilution series of the compound solution. In a petri plate of 9 cm diameter, 1 ml of the compound solution was added to 9 ml of molten sterile heart infusion agar medium (Difco Laboratories Inc.) at about 60° C. to prepare the compound-containing agar plate. An overnight culture of each test organism indicated in the above table which was prepared by stationary cultivation in Trypto-Soy broth (Eiken Chemi. Co., Ltd.) at 35° C. for 18 to 20 hours, was diluted with the Trypto-Soy broth to give approximately 10^8 cells/ml and the diluted inoculum was inoculated onto the compound-containing agar plates. After cultivating the plates at 35° C. for 20 hours, the growth of the organism was observed. The minimum concentration of the compound at which no growth of the microorganism was noted was determined, and defined as the minimum inhibitory concentration of the test compound.

[3] = tested on: Enterobacter aerogenes E19; assay: as above; type: cell-based; details: Klebsiella aerogenes, E19; agar dilution, 35° C., 20 hours; read-out: minimum inhibitory concentration
Protocol: as §1, §2, §3

Proteus rettgeri P7 = assay: as above; type: cell-based; details: Providencia rettgeri, P7; agar dilution, 35° C., 20 hours; read-out: minimum inhibitory concentration
Protocol: as §1, §2, §3

Enterobacter sp. E8 = assay: as above; type: cell-based; details: SP.E8, agar dilution, 35° C., 20 hours, read-out: minimum inhibitory concentration
Protocol: as §1, §2, §3

Serratia marcescens S18 = assay: as above; type: cell-based; details: S18, agar dilution, 35° C., 20 hours, read-out: minimum inhibitory concentration
Protocol: as §1, §2, §3

[4] = tested on: Pseudomonas aeruginosa NCTC10490; assay: as above; type: cell-based; details: NCTC10490, agar dilution, 35° C., 20 hours, read-out: minimum inhibitory concentration
Protocol: as §1, §2, §3

Proteus sp. P22 = assay: as above; type: cell-based; details: agar dilution, 35° C., 20 hours; read-out: minimum inhibitory concentration
Protocol: as §1, §2, §3

[5] = tested on: Klebsiella pneumoniae K-13; assay: as above; type: cell-based; details: K13, agar dilution, 35° C., 20 hours, read-out: minimum inhibitory concentration
Protocol: as §1, §2, §3

Alcaligenes faecalis A 1 = assay: as above; type: cell-based; details: A1, agar dilution, 35° C., 20 hours, read-out: minimum inhibitory concentration
Protocol: as §1, §2, §3

[6] = tested on: Staphylococcus aureus Russell; assay: as above; type: cell-based; details: agar dilution, 35° C., 20 hours, read-out: minimum inhibitory concentration
Protocol: as §1, §2, §3

[7] = tested on: Comamonas terrigena B-996; assay: as above; type: cell-based; details: read-out: minimum inhibitory concentration
Protocol: as §1, §2, §3

Enterobacter cloacae 45 = assay: as above; type: cell-based; details: Enterobacter cloacae, 45; agar dilution, 35° C., 20 hours; read-out: minimum inhibitory concentration
Protocol: as §1, §2, §3

Proteus mirabilis P6 = assay: as above; type: cell-based; details: P6, agar dilution, 35° C., 20 hours, read-out: minimum inhibitory concentration
Protocol: as §1, §2, §3

[8] = tested on: Staphylococcus aureus FDA 209P; assay: as above; type: cell-based; details: FDA209P, read-out: minimum inhibitory concentration
Protocol: as §1, §2, §3

[9] = tested on: Staphylococcus epidermidis; assay: as above; type: cell-based; details: read-out: minimum inhibitory concentration
Protocol: as §1, §2, §3

Proteus vulgaris GN76 = assay: as above; type: cell-based; details: GN76, agar dilution, 35° C., 20 hours, read-out: minimum inhibitory concentration
Protocol: as §1, §2, §3

Serratia marcescens T55 = assay: as above; type: cell-based; details: T55, agar dilution, 35° C., 20 hours, read-out: minimum inhibitory concentration
Protocol: as §1, §2, §3

Sarcina lutea = assay: as above; type: cell-based; details: Micrococcus luteus, read-out: minimum inhibitory concentration
Protocol: as §1, §2, §3

[10] = tested on: Bacillus subtilis ATCC 6633; assay: as above; type: cell-based; details: read-out: minimum inhibitory concentration
Protocol: as §1, §2, §3

Escherichia coli K-12 = assay: as above; type: cell-based; details: K12, agar dilution, 35° C., 20 hours, read-out: minimum inhibitory concentration
Protocol: as §1, §2, §3

Escherichia coli RGN 823 = assay: as above; type: cell-based; details: RGN823, agar dilution, 35° C., 20 hours, read-out: minimum inhibitory concentration
Protocol: as §1, §2, §3

Providencia sp. P8 = assay: as above; type: cell-based; details: SP.P8, agar dilution, 35° C., 20 hours, read-out: minimum inhibitory concentration
Protocol: as §1, §2, §3

[11] = tested on: Citrobacter freundii GN 346; assay: as above; type: cell-based; details: GN346, agar dilution, 35° C., 20 hours, read-out: minimum inhibitory concentration
Protocol: as §1, §2, §3

[12] = tested on: Pseudomonas aeruginosa IFO3445; assay: as above; type: cell-based; details: IFO3445, agar dilution, 35° C., 20 hours, read-out: minimum inhibitory concentration
Protocol: as §1, §2, §3

[13] = tested on: Alcaligenes faecalis B326; assay: as above; type: cell-based; details: B326, 20 h, read-out: minimum inhibitory concentration
Protocol: as §1, §2, §3

[14] = tested on: Gram-positive and Gram-negative bacteria; assay: antibiotic activity (antimicrobial spectrum); type: cell-based; details: comparison in words
Protocol: as §2, §3

[15] = B996, agar dilution, 35° C., 20 hours
[16] = agar dilution, 35° C., 20 hours
[17] = ATCC6633, agar dilution, 35° C., 20 hours

CC(O)C1C(=O)N2C(C(=O)O)=C(Sc3ccncc3)CC12 (stereo not drawn) [Example 60, 5,6-cis-3-(4-Pyridylthio)-6-(1-hydroxyethyl)-7-oxo-1-azabicyclo[3.2.0]hept-2-ene-2-carboxylic acid]
ED50 [1]: 0.125 mg/kg
MIC [2]: < 0.007 µg/mL
MIC [3]: 1.56 µg/mL (≈ 5.09 µM)
MIC (Proteus rettgeri P7): 0.78 µg/mL (≈ 2.55 µM)
MIC (Enterobacter sp. E8): 0.025 µg/mL (≈ 0.0816 µM)
MIC (Serratia marcescens S18): 50 µg/mL (≈ 163 µM)
MIC [4]: 1.56 µg/mL (≈ 5.09 µM)
MIC (Proteus sp. P22): 50 µg/mL (≈ 163 µM)
MIC [5]: 25 µg/mL (≈ 81.6 µM)
MIC (Alcaligenes faecalis A 1): < 0.007 µg/mL
MIC [6]: < 0.007 µg/mL
MIC [7, 15]: < 0.007 µg/mL
MIC (Enterobacter cloacae 45): 6.25 µg/mL (≈ 20.4 µM)
MIC (Proteus mirabilis P6): 0.39 µg/mL (≈ 1.27 µM)
MIC [8, 16]: < 0.007 µg/mL
MIC [9, 16]: < 0.007 µg/mL
MIC (Proteus vulgaris GN76): 50 µg/mL (≈ 163 µM)
MIC (Serratia marcescens T55): 25 µg/mL (≈ 81.6 µM)
MIC (Sarcina lutea; [16]): < 0.007 µg/mL
MIC [10, 17]: < 0.007 µg/mL
MIC (Escherichia coli K-12): 0.05 µg/mL (≈ 0.163 µM)
MIC (Escherichia coli RGN 823): 6.25 µg/mL (≈ 20.4 µM)
MIC (Providencia sp. P8): 0.2 µg/mL (≈ 0.653 µM)
MIC [11]: 6.25 µg/mL (≈ 20.4 µM)
MIC [12]: 1.56 µg/mL (≈ 5.09 µM)

CC(O)C1C(=O)N2C(C(=O)O)=C(Sc3ncccn3)CC12 (stereo not drawn) [Example 64, 5,6-cis-3-(2-Pyrimidinylthio)-6-(1-hydroxyethyl)-7-oxo-1-azabicyclo[3.2.0]hept-2-ene-2-carboxylic acid]
ED50 [1]: 0.25 mg/kg
MIC [2]: 0.025 µg/mL (≈ 0.0813 µM)
MIC [3]: 3.13 µg/mL (≈ 10.2 µM)
MIC (Proteus rettgeri P7): 1.56 µg/mL (≈ 5.08 µM)
MIC (Enterobacter sp. E8): 0.013 µg/mL (≈ 0.0423 µM)
MIC (Serratia marcescens S18): 12.5 µg/mL (≈ 40.7 µM)
MIC [4]: 25 µg/mL (≈ 81.3 µM)
MIC (Proteus sp. P22): 25 µg/mL (≈ 81.3 µM)
MIC [5]: 25 µg/mL (≈ 81.3 µM)
MIC (Alcaligenes faecalis A 1): 0.05 µg/mL (≈ 0.163 µM)
MIC [6]: 0.013 µg/mL (≈ 0.0423 µM)
MIC [7, 15]: < 0.007 µg/mL
MIC (Enterobacter cloacae 45): 12.5 µg/mL (≈ 40.7 µM)
MIC (Proteus mirabilis P6): 0.78 µg/mL (≈ 2.54 µM)
MIC [8, 16]: < 0.007 µg/mL
MIC [9, 16]: 0.025 µg/mL (≈ 0.0813 µM)
MIC (Proteus vulgaris GN76): 6.25 µg/mL (≈ 20.3 µM)
MIC (Serratia marcescens T55): 12.5 µg/mL (≈ 40.7 µM)
MIC (Sarcina lutea; [16]): < 0.007 µg/mL
MIC [10, 17]: < 0.007 µg/mL
MIC (Escherichia coli K-12): 0.1 µg/mL (≈ 0.325 µM)
MIC (Escherichia coli RGN 823): 1.56 µg/mL (≈ 5.08 µM)
MIC (Providencia sp. P8): 0.2 µg/mL (≈ 0.651 µM)
MIC [11]: 6.25 µg/mL (≈ 20.3 µM)
MIC [12]: 25 µg/mL (≈ 81.3 µM)

CCCCSC1=C(C(=O)[O-])N2C(=O)C(CC)C2C1.[Na+] (stereo not drawn) [Example 68, Sodium 3-n-butylthio-6-ethyl-7-oxo-1-azabicyclo[3.2.0]hept-2-ene-2-carboxylate]
MIC [13]: 15 µg/mL
MIC ([7]; B996, 20 h): 0.24 µg/mL
MIC ([8]; 20 h): 0.24 µg/mL
MIC ([9]; 20 h): 0.12 µg/mL
MIC (Sarcina lutea; 20 h): 1.88 µg/mL
MIC ([10]; ATCC6633, 20 h): 3.75 µg/mL

CC(=O)NCCSC1=C(C(=O)O)N2C(=O)C(C(C)O)C2C1 (stereo not drawn) [PS-3, 3-(2-acetamidoethylthio)-6-(1-hydroxyethyl)-7-oxo-1-azabicyclo[3.2.0]hept-2-ene-2-carboxylic acid]
antibiotic activity (in words) [14]: better antibiotic activity than cephazolin (CEZ)
